What was measured:
[1] = system: Escherichia coli ATCC 25922; assay: Minimum inhibitory concentration (MIC), CLSI broth micro-dilution, E. coli; format: cell-based; settings: Escherichia coli, ATCC25922, 22 h
Outline: (§1)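 Colonies grown 20 h at 35° C on Trypticase Soy agar (MRSA) or Luria agar (E. coli) were suspended in cation-adjusted Mueller Hinton broth with 0.002% Tween-80. Suspensions were added at OD600 0.0005 to 10-point twofold compound dilutions, then incubated 22 h at 35° C.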

[2] = system: Methicillin Resistant Staphylococcus aureus strain USA 200; assay: Minimum inhibitory concentration (MIC), CLSI broth micro-dilution, S. aureus; format: cell-based; settings: Staphylococcus aureus, MRSA / USA200, MRSA USA 200, cation adjusted Mueller Hinton Broth + 0.002% Tween-80, 35° C., 22 hours
Outline: as §1

[3] = Table 6, cation adjusted Mueller Hinton Broth + 0.002% Tween-80, 35° C.

CNc1nc(-c2ccc(C(C)(C)C)cc2)nc(C)c1C(=O)N[C@@H](CCN)C(=O)N(C)[C@@H]1C(=O)N[C@@H](C)C(=O)N[C@H](C(=O)NCC#N)Cc2ccc(OCCN)c(c2)-c2cc1ccc2OCCN (racemic) [Compound 425, rac-(8S,11S,14S)-3,18-bis(2-aminoethoxy)-N-(cyanomethyl)-11-methyl-14-[methyl-[rac-(2S)-4-amino-2-[[2-(4-tert-butylphenyl)-4-methyl-6-(methylamino)pyrimidine-5-carbonyl]amino]butanoyl]amino]-10,13-dioxo-9,12-diazatricyclo[13.3.1.12,6]icosa-1(18),2(20),3,5,15(19),16-hexaene-8-carboxamide]
MIC [1, 3]: 0.19 µM | MIC ([2]; Table 6): 0.016 µM

CC(C)=Cc1ccc(-c2nc(C)c(C(=O)N[C@@H](CCN)C(=O)N(C)[C@@H]3C(=O)N[C@@H](C)C(=O)N[C@H](C(=O)NCC#N)Cc4ccc(OCCN)c(c4)-c4cc3ccc4OCCN)c(C)n2)cc1 (racemic) [Compound 273, rac-(8S,11S,14S)-3,18-bis(2-aminoethoxy)-N-(cyanomethyl)-11-methyl-14-[methyl-[rac-(2S)-4-amino-2-[[4,6-dimethyl-2-[4-(2-methylprop-1-enyl)phenyl]pyrimidine-5-carbonyl]amino]butanoyl]amino]-10,13-dioxo-9,12-diazatricyclo[13.3.1.12,6]icosa-1(18),2(20),3,5,15(19),16-hexaene-8-carboxamide]
MIC [1, 3]: 0.099 µM | MIC ([2]; Table 6): 0.0082 µM

CCC(CC)Oc1ccc(-c2nc(C)c(C(=O)N[C@@H](CCN)C(=O)N(C)[C@@H]3C(=O)N[C@@H](C)C(=O)N[C@H](C(=O)NCC#N)Cc4ccc(OCCN)c(c4)-c4cc3ccc4OCCN)c(C)n2)cc1 (racemic) [Compound 339, rac-(8S,11S,14S)-3,18-bis(2-aminoethoxy)-N-(cyanomethyl)-11-methyl-14-[methyl-[rac-(2S)-4-amino-2-[[2-[4-(1-ethylpropoxy)phenyl]-4,6-dimethyl-pyrimidine-5-carbonyl]amino]butanoyl]amino]-10,13-dioxo-9,12-diazatricyclo[13.3.1.12,6]icosa-1(18),2(20),3,5,15(19),16-hexaene-8-carboxamide]
MIC [1, 3]: 0.25 µM | MIC ([2]; Table 6): 0.047 µM

Cc1nc(-c2ccc(C(C)(C)C)cc2)ncc1C(=O)N[C@@H](CCNC(N)=O)C(=O)N(C)[C@@H]1C(=O)N[C@@H](C)C(=O)N[C@H](C(=O)NCC#N)Cc2ccc(OCCN)c(c2)-c2cc1ccc2OCCN (racemic) [Compound 452, rac-(8S,11S,14S)-3,18-bis(2-aminoethoxy)-N-(cyanomethyl)-11-methyl-14-[methyl-[rac-(2S)-2-[[2-(4-tert-butylphenyl)-4-methyl-pyrimidine-5-carbonyl]amino]-4-ureido-butanoyl]amino]-10,13-dioxo-9,12-diazatricyclo[13.3.1.12,6]icosa-1(18),2(20),3,5,15(19),16-hexaene-8-carboxamide]
MIC [1, 3]: 1.3 µM | MIC ([2]; Table 6): 0.13 µM

Cc1nc(-c2ccc3c(c2)CCC3(C)C)nc(C)c1C(=O)N[C@@H](CCN)C(=O)N(C)[C@@H]1C(=O)N[C@@H](C)C(=O)N[C@H](C(=O)NCC#N)Cc2ccc(OCCN)c(c2)-c2cc1ccc2OCCN (racemic) [Compound 269, rac-(8S,11S,14S)-3,18-bis(2-aminoethoxy)-N-(cyanomethyl)-11-methyl-14-[methyl-[rac-(2S)-4-amino-2-[[2-(1,1-dimethylindan-5-yl)-4,6-dimethyl-pyrimidine-5-carbonyl]amino]butanoyl]amino]-10,13-dioxo-9,12-diazatricyclo[13.3.1.12,6]icosa-1(18),2(20),3,5,15(19),16-hexaene-8-carboxamide]
MIC [1, 3]: 0.094 µM | MIC ([2]; Table 6): 0.016 µM

Cc1nc(-c2ccc(C(C)(C)C)cc2)nc(C)c1C(=O)N[C@@H](CCN)C(=O)N(C)[C@@H]1C(=O)N[C@@H](C)C(=O)N[C@H](C(=O)NCC#N)Cc2ccc(OCCN)c(c2)-c2cc1ccc2O (racemic) [Compound 553, rac-(8S,11S,14S)-3-(2-aminoethoxy)-N-(cyanomethyl)-18-hydroxy-11-methyl-14-[methyl-[rac-(2S)-4-amino-2-[[2-(4-tert-butylphenyl)-4,6-dimethyl-pyrimidine-5-carbonyl]amino]butanoyl]amino]-10,13-dioxo-9,12-diazatricyclo[13.3.1.12,6]icosa-1(18),2(20),3,5,15(19),16-hexaene-8-carboxamide]
MIC [1, 3]: 0.21 µM | MIC ([2]; Table 6): 0.055 µM

CCC(=Cc1ccc(-c2nc(C)c(C(=O)N[C@@H](CCN)C(=O)N(C)[C@@H]3C(=O)N[C@@H](C)C(=O)N[C@H](C(=O)NCC#N)Cc4ccc(OCCN)c(c4)-c4cc3ccc4OCCN)c(C)n2)cc1)CC (racemic) [Compound 276, rac-(8S,11S,14S)-3,18-bis(2-aminoethoxy)-N-(cyanomethyl)-11-methyl-14-[methyl-[rac-(2S)-4-amino-2-[[2-[4-(2-ethylbut-1-enyl)phenyl]-4,6-dimethyl-pyrimidine-5-carbonyl]amino]butanoyl]amino]-10,13-dioxo-9,12-diazatricyclo[13.3.1.12,6]icosa-1(18),2(20),3,5,15(19),16-hexaene-8-carboxamide]
MIC [1, 3]: 0.063 µM | MIC ([2]; Table 6): 0.016 µM

Cc1nc(-c2ccc3c(c2)CCC3(C)C)nc(C)c1C(=O)N[C@@H](CCN)C(=O)N(C)[C@@H]1C(=O)N[C@@H](C)C(=O)N[C@H](C(=O)O)Cc2ccc(OCCN)c(c2)-c2cc1ccc2OCCN (racemic) [Compound 647, rac-(8S,11S,14S)-3,18-bis(2-aminoethoxy)-11-methyl-14-[methyl-[rac-(2S)-4-amino-2-[[2-(1,1-dimethylindan-5-yl)-4,6-dimethyl-pyrimidine-5-carbonyl]amino]butanoyl]amino]-10,13-dioxo-9,12-diazatricyclo [13.3.1.12,6]icosa-1(18),2(20),3,5,15(19), 16-hexaene-8-carboxylic acid]
MIC ([1]; Table 8, cation adjusted Mueller Hinton Broth + 0.002% Tween-80, 35° C.): 0.25 µM | MIC ([2]; Table 8): 0.19 µM

CCCCCCCc1ccc(C(=O)N[C@@H](CS)C(=O)N(C)[C@@H]2C(=O)N[C@@H](C)C(=O)N[C@H](C(=O)NCC#N)Cc3ccc(OCCN)c(c3)-c3cc2ccc3OCCN)c(C)c1 (racemic) [Compound 454, rac-(8S,11S,14S)-3,18-bis(2-aminoethoxy)-N-(cyanomethyl)-11-methyl-14-[methyl-[rac-(2R)-2-[(4-heptyl-2-methyl-benzoyl)amino]-3-sulfanyl-propanoyl]amino]-10,13-dioxo-9,12-diazatricyclo[13.3.1.12,6]icosa-1(18),2(20),3,5,15(19),16-hexaene-8-carboxamide]
MIC [1, 3]: 4.4 µM | MIC ([2]; Table 6): 0.55 µM

Cc1nc(C#Cc2ccc(C(C)(C)C)cc2)nc(C)c1C(=O)N[C@@H](CCN)C(=O)N(C)[C@@H]1C(=O)N[C@@H](C)C(=O)N[C@H](C(=O)NCC#N)Cc2ccc(OCCN)c(c2)-c2cc1ccc2OCCN (racemic) [Compound 311, rac-(8S,11S,14S)-3,18-bis(2-aminoethoxy)-N-(cyanomethyl)-11-methyl-14-[methyl-[rac-(2S)-4-amino-2-[[2-[2-(4-tert-butylphenyl)ethynyl]-4,6-dimethyl-pyrimidine-5-carbonyl]amino]butanoyl]amino]-10,13-dioxo-9,12-diazatricyclo[13.3.1.12,6]icosa-1(18),2(20),3,5,15(19),16-hexaene-8-carboxamide]
MIC [1, 3]: 8.2 µM | MIC ([2]; Table 6): 1 µM

CCCCOc1ccc(-c2nc(C)c(C(=O)N[C@@H](CCN)C(=O)N(C)[C@@H]3C(=O)N[C@@H](C)C(=O)N[C@H](C(=O)NCC#N)Cc4ccc(OCCN)c(c4)-c4cc3ccc4OCCN)c(C)n2)cc1 (racemic) [Compound 331, rac-(8S,11S,14S)-3,18-bis(2-aminoethoxy)-N-(cyanomethyl)-11-methyl-14-[methyl-[rac-(2S)-4-amino-2-[[2-(4-butoxyphenyl)-4,6-dimethyl-pyrimidine-5-carbonyl]amino]butanoyl]amino]-10,13-dioxo-9,12-diazatricyclo[13.3.1.12,6]icosa-1(18),2(20),3,5,15(19),16-hexaene-8-carboxamide]
MIC [1, 3]: 0.13 µM | MIC ([2]; Table 6): 0.0081 µM

CCC(CC)Cc1ccc(-c2nc(C)c(C(=O)N[C@@H](CCN)C(=O)N(C)[C@@H]3C(=O)N[C@@H](C)C(=O)N[C@H](C(=O)NCC#N)Cc4ccc(OCCN)c(c4)-c4cc3ccc4OCCN)c(C)n2)cc1 (racemic) [Compound 277, rac-(8S,11S,14S)-3,18-bis(2-aminoethoxy)-N-(cyanomethyl)-11-methyl-14-[methyl-[rac-(2S)-4-amino-2-[[2-[4-(2-ethylbutyl)phenyl]-4,6-dimethyl-pyrimidine-5-carbonyl]amino]butanoyl]amino]-10,13-dioxo-9,12-diazatricyclo[13.3.1.12,6]icosa-1(18),2(20),3,5,15(19),16-hexaene-8-carboxamide]
MIC [1, 3]: 0.13 µM | MIC ([2]; Table 6): 0.016 µM

CCCCCCCc1ccc(C(=O)N[C@@H](CNC)C(=O)N(C)[C@@H]2C(=O)N[C@@H](C)C(=O)N[C@H](C(=O)NCC#N)Cc3ccc(OCCN)c(c3)-c3cc2ccc3OCCN)c(C)c1 (racemic) [Compound 453, rac-(8S,11S,14S)-3,18-bis(2-aminoethoxy)-N-(cyanomethyl)-11-methyl-14-[methyl-[rac-(2S)-2-[(4-heptyl-2-methyl-benzoyl)amino]-3-(methylamino)propanoyl]amino]-10,13-dioxo-9,12-diazatricyclo[13.3.1.12,6]icosa-1(18),2(20),3,5,15(19),16-hexaene-8-carboxamide]
MIC [1, 3]: 1.1 µM | MIC ([2]; Table 6): 0.026 µM

— US20260274892A1, “MACROCYCLIC BROAD SPECTRUM ANTIBIOTICS” (RQx Pharmaceuticals, Inc., priority 2017, published 2026)
